Test results taken from publication PMC11278233, “The Composition of Triterpene Glycosides in the Sea Cucumber Psolus peronii: Anticancer Activity of the Glycosides against Three Human Breast Cancer Cell Lines and Quantitative Structure–Activity Relationships (QSAR)” (Marine Drugs, 2024).
Read-outs that look alike come from different tables or passages of the source.

Experiments:
human erythrocytes = experiment: Hemolytic activity; type: cell-based; conditions: for IC50: Erythrocyte, 1 h at 37 °C, lysis of 50% of erythrocytes
Experimental: A total of 450 g of human blood (B(III) Rh+) was used to obtain erythrocytes by centrifuging it three times for 5 min with phosphate-buffered saline (PBS) (pH 7.4) at 4 °C on the centrifuge LABOFUGE 400R (Heraeus, Hanau, Germany). Ice-cold PBS (pH 7.4) was used for resuspension of the erythrocyte residue to a final optical density of 1.5 at 700 nm, which was kept on ice. Then, 20 µL of the tested compound solutions was added to 180 µL of the erythrocyte suspension in V-bottom 96-well plates and exposed for 1 h at 37 °C. The layers were separated by centrifugation at 900 g for 10 min on the laboratory centrifuge LMC-3000 (Biosan, Riga, Latvia). A total of 100 µL of the supernatant was carefully decanted and transferred into a new flat plate. The values of erythrocyte lysis were measured on a microplate photometer Multiskan FC (Thermo Fisher Scientific, Waltham, MA, USA) at λ = 570 nm as the hemoglobin concentration in the supernatant. […] All the experiments were carried out in triple repetitions; p ≤ 0.05.

[1] = test system: human breast cancer cell line T-47D; experiment: cells; type: cell-based; conditions: for Selectivity Index T-47D: ratio of IC50 for healthy (MCF-10A) and cancer cells
[2] = test system: triple-negative human breast cancer cell line MDA-MB-231; experiment: cells; type: cell-based; conditions: for Selectivity Index MDA-MB-231: ratio of IC50 for healthy (MCF-10A) and cancer cells
[3] = test system: human breast cancer cell line MCF-7; experiment: cells; type: cell-based; conditions: for Selectivity Index MCF-7: ratio of IC50 for healthy (MCF-10A) and cancer cells
in vitro = type: cell-based, human; conditions: human
MDA-MB-231 cells [4] = experiment: Wound healing (scratch) assay, MDA-MB-231; type: cell-based, human; conditions: 2 μM, within 12 h, control 99.83 ± 0.08%
Experimental: (§1) To analyze the influence of the tested compounds on tumor cell migration, MCF-7 and MDA-MB-231 (5 × 10^5) cells attached to the plate’s plastic bottom were separated using a silicone insert from special migration plates (Culture-insert 2Well 24, ibiTreat). When the insert was removed, a gap of […] (according to the manufacturer’s data) between the cells was left. After 24 h, the cells were washed twice with PBS to remove cell debris and floating cells, treated with 1 and 2 μM of psolusosides A (2) and L (6) and placed in the real-time live cell imaging system Juli Stage (NanoEntek, Seoul, South Korea). Cells treated with the culture medium only were used as the control. The cell migration was analyzed in real time (15 min for each cycle). For the MDA-MB-231 cells, observations were carried out for 12 h (until complete healing of the wound area in the control); for MCF-7 cells, this time was 48 h. The results were processed using the program Juli^TM Stat (NanoEntek, South Korea).

MDA-MB-231 cells [5] = experiment: Colonogenic (colony formation) assay, MDA-MB-231; type: cell-based; conditions: Homo sapiens, 336 h, 14 days, read-out: inhibition of the growth of colonies
Experimental: (§2) The cancer cells (MDA-MB-231, MCF-7 and T-47D lines) were cultured on 6-well plates at a density of 1 × 10^3 per well in control media (MEM media, 10% FBS, 10,000 U/mL of penicillin and […] of streptomycin) or in media supplemented with different concentrations of the glycosides. The cells were incubated for 14 days at 37 °C in a 5% CO2 humidified incubator. Then, the colonies were fixed with methanol (25 min), stained with a 0.5% solution of crystal violet (25 min), washed with H2O and dried in air. Counting of the grown colonies was carried out using a BIO-PRINT-Cx4 Edge-Fixed Pad-Container (Vilber, Collegien, France) device and using the software Bio-Vision SOFTWARE User and service manual-v18.01 (Vilber, Collegien, France). The results are presented as % of colony inhibition in relation to the control.

[6] = test system: non-transformed epithelial cells of the mammary gland MCF-10A; experiment: in vitro; type: cell-based, human
MCF-7 cells [7] = experiment: Colonogenic (colony formation) assay, MCF-7; type: cell-based; conditions: Homo sapiens, MCF7, 336 h, 14 days
Experimental: as §2

MCF-7 cells [8] = experiment: Wound healing (scratch) assay, MCF-7; type: cell-based, human; conditions: 1 and 2 μM, within 48 h, control migrated by 84.60 ± 2.12%
Experimental: as §1

[9] = Homo sapiens, T47D, 24 h, read-out: Cytotoxicity, IC50 µM T-47D
[10] = Homo sapiens, MDA-MB-231, 24 h, read-out: Cytotoxicity, IC50 µM MDA-MD-231
[11] = Homo sapiens, MCF7, 24 h, read-out: Cytotoxicity, IC50 µM MCF-7

With C=C(C)CCC[C@]1(C)OC(=O)[C@]23CC[C@@H]4C(=CC[C@H]5C(C)(C)[C@@H](O[C@@H]6OC[C@@H](O[C@@H]7O[C@H](CO)[C@@H](O)[C@H](O)[C@H]7OS(=O)(=O)[O-])[C@H](O)[C@H]6O[C@@H]6O[C@H](CO)[C@@H](O[C@@H]7O[C@H](COS(=O)(=O)[O-])[C@@H](O)[C@H](O)[C@H]7O)[C@H](O)[C@H]6O)CC[C@]45C)[C@]2(C)CC(=O)[C@@H]31.[Na+].[Na+] [peronioside A (1), 3β-O-{6-O-sodium-sulfate-β-D-glucopyranosyl-(1→4)-β-D-glucopyranosyl-(1→2)-[2-O-sodium-sulfate-β-D-glucopyranosyl-(1→4)]-β-D-xylopyranosyl}-16-oxoholosta-7,25-diene] the “hemolytic activity (result in words)” value (human erythrocytes) was “moderate hemolytic activity”, the IC50 (human erythrocytes) was 30.8 ± 1.01 µM and the IC50 [1, 9] was greater than 50 µM. The IC50 [2, 10] was greater than 50 µM, the IC50 [3, 11] was greater than 50 µM and the IC50 at 24 h (in vitro) was greater than 50 µM.

For C=C(C)CCC[C@]1(C)OC(=O)[C@]23CC=C4[C@@H](CC[C@H]5C(C)(C)[C@@H](O[C@@H]6OC[C@@H](O)[C@H](O)[C@H]6O[C@@H]6O[C@H](C)[C@@H](O[C@@H]7O[C@H](COS(=O)(=O)[O-])[C@@H](O)[C@H](O[C@@H]8O[C@H](COS(=O)(=O)[O-])[C@@H](O)[C@H](OC)[C@H]8O)[C@H]7O)[C@H](O)[C@H]6O)CC[C@]45C)[C@]2(C)CC(=O)[C@@H]31.[Na+].[Na+] [psolusoside A (2), psolusoside A], the “overgrowth of the wound area (migration)” value (MDA-MB-231 cells [4]) was 30.01 ± 0.16%, the IC50 (human erythrocytes) was 1.05 ± 0.12 µM and the IC50 [1, 9] was 9.52 ± 0.13 µM. For the same compound, the “Selectivity Index T-47D” value ([1]; 24 h of exposition) was 5.25, the “Selectivity Index T-47D” value ([1]; 48 h of exposition) was 0.86 and the “Selectivity Index T-47D” value ([1]; 72 h of exposition) was 0.76. It also gave an IC50 [2, 10] of 6.09 ± 0.87 µM, an IC50 ([2]; Homo sapiens, MDA-MB-231, MTT assay, 48 h incubation, read-out: IC50 against MDA-MB-231 cells (antiproliferative effect)) of 3.87 ± 0.38 µM and an IC50 ([2]; Homo sapiens, MDA-MB-231, MTT assay, 72 h incubation, read-out: IC50 against MDA-MB-231 cells (antiproliferative effect)) of 3.27 ± 0.27 µM. For the same compound, the “Selectivity Index MDA-MB-231” value ([2]; 24 h of exposition) was 8.21, the “Selectivity Index MDA-MB-231” value ([2]; 48 h of exposition) was 2.18 and the “Selectivity Index MDA-MB-231” value ([2]; 72 h of exposition) was 2.09. It also gave an inhibition at 0.5 µM (MDA-MB-231 cells [5]; 0.5 μM) of 40.6 ± 5.62%, an inhibition at 1 µM (MDA-MB-231 cells [5]; 1 μM) of 88.76 ± 0.81% and an IC50 [3, 11] of 11.2 ± 0.4 µM. The “Selectivity Index MCF-7” value ([3]; 24 h of exposition) was 4.47, the “Selectivity Index MCF-7” value ([3]; 48 h of exposition) was 1.84 and the “Selectivity Index MCF-7” value ([3]; 72 h of exposition) was 0.59. For the same compound, the IC50 at 24 h (in vitro) was greater than 50 µM, the “cytotoxicity to non-transformed MCF-10A cells (result in words)” value [6] was “not cytotoxic” and the inhibition at 1 µM (MCF-7 cells [7]; 1 μM) was 33.8 ± 2.64%. For the same compound, the inhibition at 2 µM (MCF-7 cells [7]; 2 μM) was 54.9 ± 1.92%, the inhibition at 5 µM (MCF-7 cells [7]; 5 μM) was 96.88 ± 0.96% and the “reduction of the migration of cells to the scratch area” value (MCF-7 cells [8]) was 33–42%.

With C=C(C)CCC[C@](C)(OC(C)=O)[C@H]1[C@@H]2C[C@@]3(C)C4=CC[C@H]5C(C)(C)[C@@H](O[C@@H]6OC[C@@H](O[C@@H]7O[C@H](CO)[C@@H](O)[C@H](O)[C@H]7OS(=O)(=O)[O-])[C@H](O)[C@H]6O[C@@H]6O[C@H](CO)[C@@H](O[C@@H]7O[C@H](COS(=O)(=O)[O-])[C@@H](O)[C@H](O)[C@H]7O)[C@H](O)[C@H]6O)CC[C@]5(C)C4CC[C@]13C(=O)O2.[Na+].[Na+] (stereo partly drawn) [psolusoside B (3), psolusoside B] the “hemolytic activity (result in words)” value (human erythrocytes) was “almost not active”, the IC50 (human erythrocytes) was 74.6 ± 1.21 µM and the IC50 [1, 9] was greater than 50 µM. The IC50 [2, 10] was greater than 50 µM, the IC50 [3, 11] was greater than 50 µM and the IC50 at 24 h (in vitro) was greater than 50 µM.

With C=C(C)CCC[C@]1(C)OC(=O)[C@]23CC=C4[C@@H](CC[C@H]5C(C)(C)[C@@H](O[C@@H]6OC[C@@H](O)[C@H](O)[C@H]6O[C@@H]6O[C@H](CO)[C@@H](O[C@@H]7O[C@H](COS(=O)(=O)O)[C@@H](O)[C@H](O[C@@H]8O[C@H](COS(=O)(=O)O)[C@@H](O)[C@H](OC)[C@H]8O)[C@H]7O)[C@H](O)[C@H]6O)CC[C@]45C)[C@]2(C)CC(=O)[C@@H]31 [psolusoside G (4), psolusoside G] the IC50 (human erythrocytes) was 2.7 ± 0.09 µM, the IC50 [1, 9] was 16 ± 1.17 µM and the IC50 [2, 10] was 11 ± 0.36 µM. The IC50 [3, 11] was 11.4 ± 0.36 µM and the IC50 at 24 h (in vitro) was greater than 50 µM.

C=C(C)CCC[C@]1(C)OC(=O)[C@]23CCC4C(=CC[C@H]5C(C)(C)[C@@H](O[C@@H]6OC[C@@H](O[C@@H]7O[C@H](COS(=O)(=O)O)[C@@H](O)[C@H](O)[C@H]7O)[C@H](O)[C@H]6O[C@@H]6OC[C@@H](O[C@@H]7O[C@H](COS(=O)(=O)O)[C@@H](O)[C@H](O)[C@H]7O)[C@H](O)[C@H]6O)CC[C@]45C)[C@]2(C)C[C@H](OC(C)=O)[C@@H]31 (stereo partly drawn) [psolusoside I (5), psolusoside I] showed an IC50 (human erythrocytes) of 8.49 ± 0.49 µM, an IC50 [1, 9] of 19.6 ± 0.61 µM and an IC50 [2, 10] of 33.1 ± 0.85 µM. It also gave an IC50 [3, 11] greater than 50 µM and an IC50 at 24 h (in vitro) greater than 50 µM.

Work on C=C(C)CCC[C@]1(C)OC(=O)[C@]23CC=C4[C@@H](CC[C@H]5C(C)(C)[C@@H](O[C@@H]6OC[C@@H](O[C@@H]7O[C@H](COS(=O)(=O)O)[C@@H](O)[C@H](O)[C@H]7O)[C@H](O)[C@H]6O[C@@H]6O[C@H](CO)[C@@H](O[C@@H]7O[C@H](COS(=O)(=O)O)[C@@H](O)[C@H](O[C@@H]8O[C@H](COS(=O)(=O)O)[C@@H](O)[C@H](OC)[C@H]8O)[C@H]7O)[C@H](O)[C@H]6O)CC[C@]45C)[C@]2(C)CC(=O)[C@@H]31 [psolusoside N (7), psolusoside N] yielded an IC50 [1] greater than 50 µM, an IC50 [2] of 39.3 ± 2.89 µM and an IC50 [3] greater than 50 µM. The IC50 [6] was greater than 50 µM.

C=C(C)CCC[C@]1(C)OC(=O)[C@]23CC=C4[C@@H](CC[C@H]5C(C)(C)[C@@H](O[C@@H]6OC[C@@H](O[C@@H]7O[C@H](COS(=O)(=O)O)[C@@H](OS(=O)(=O)O)[C@H](O)[C@H]7O)[C@H](O)[C@H]6O[C@@H]6O[C@H](C)[C@@H](O[C@@H]7O[C@H](COS(=O)(=O)O)[C@@H](O)[C@H](O[C@@H]8O[C@H](COS(=O)(=O)O)[C@@H](O)[C@H](OC)[C@H]8O)[C@H]7O)[C@H](O)[C@H]6O)CC[C@]45C)[C@]2(C)CC(=O)[C@@H]31 [psolusoside P (8), psolusoside P] showed an IC50 [1] of 37.1 ± 0.83 µM, an IC50 [2] of 33.3 ± 1.31 µM and an IC50 [3] greater than 50 µM. The IC50 [6] was greater than 50 µM.
